Experiments:
[1] = test system: HeLa cells; assay: Cell-based degradation of FITC-insulin; parameters: species or system human; conditions: for increase in magnitude of IDE activity for insulin degradation in HeLa cells: HeLa cells pre-loaded with FITC-insulin, 20 µM; for permeability through cell membrane: inferred from HeLa cell assay
Experimental: It was shown that HeLa cells express insulin receptor, and thus take FITC-labeled insulin inside and degrade it intracellularly, [21], [22]. First, FITC-insulin was added to the culture that contains HeLa cells and incubated for 2 hours in order to allow for sufficient uptake of FITC-insulin by HeLa cells. In order to ensure that FITC-labeled insulin is translocating into the cells through insulin uptake receptor, and that cytoplasmic IDE can degrade FITC- insulin, we conducted live cell imaging of HeLa cells, and recorded fluorescence. At various time points compounds, D3, D6, and D10, were added; and cells were washed with Hank's balanced salt solution (HBSS), the these cells were collected and lysed with appropriate buffer. After centrifugation, cell free extracts were used to measure the change in fluorescence by luminometer. […] Compound D10 increased in vivo proteolysis of FITC- insulin by about 32 fold with HeLa cells compared to control group (Fig. 3A). […] These findings are consistent with the data obtained by in vitro assay, showing enhanced degradation of insulin by D10 and D3 (Fig. 3A). […] This figure further verifies the significant increase in fluorescence observed in the presence of compound D10, which is consistent with our in vitro assay (Fig. 3B).
Cells were cultured at 37°C under a humidified atmosphere of 5% CO2 in medium supplemented with 10% fetal bovine serum. Then, FITC-insulin was added to cell medium and incubated for 2 h at 37°C. Next, compounds were loaded at different time intervals separately. Cells were washed with Hank's balanced salt solution (HBSS), then disrupted with 1× passive lysis buffer. Fluorescence was measured with a luminescence multi-label plate leader, and changes in fluorescence was imaged by fluorescence microscope at Burc Laboratory (Istanbul, Turkey).

[2] = target: T1, IDE (Homo sapiens, UniProt P14735); assay: Enzymatic competition assay with bradykinin; format: biochemical; conditions: bradykinin 2.1, 4.2 and 8.4 mM; varying D10 (0–50 µM)
T1 construct: made in house; host or cells: E. coli BL21
T1 sequence (P14735 1-1019): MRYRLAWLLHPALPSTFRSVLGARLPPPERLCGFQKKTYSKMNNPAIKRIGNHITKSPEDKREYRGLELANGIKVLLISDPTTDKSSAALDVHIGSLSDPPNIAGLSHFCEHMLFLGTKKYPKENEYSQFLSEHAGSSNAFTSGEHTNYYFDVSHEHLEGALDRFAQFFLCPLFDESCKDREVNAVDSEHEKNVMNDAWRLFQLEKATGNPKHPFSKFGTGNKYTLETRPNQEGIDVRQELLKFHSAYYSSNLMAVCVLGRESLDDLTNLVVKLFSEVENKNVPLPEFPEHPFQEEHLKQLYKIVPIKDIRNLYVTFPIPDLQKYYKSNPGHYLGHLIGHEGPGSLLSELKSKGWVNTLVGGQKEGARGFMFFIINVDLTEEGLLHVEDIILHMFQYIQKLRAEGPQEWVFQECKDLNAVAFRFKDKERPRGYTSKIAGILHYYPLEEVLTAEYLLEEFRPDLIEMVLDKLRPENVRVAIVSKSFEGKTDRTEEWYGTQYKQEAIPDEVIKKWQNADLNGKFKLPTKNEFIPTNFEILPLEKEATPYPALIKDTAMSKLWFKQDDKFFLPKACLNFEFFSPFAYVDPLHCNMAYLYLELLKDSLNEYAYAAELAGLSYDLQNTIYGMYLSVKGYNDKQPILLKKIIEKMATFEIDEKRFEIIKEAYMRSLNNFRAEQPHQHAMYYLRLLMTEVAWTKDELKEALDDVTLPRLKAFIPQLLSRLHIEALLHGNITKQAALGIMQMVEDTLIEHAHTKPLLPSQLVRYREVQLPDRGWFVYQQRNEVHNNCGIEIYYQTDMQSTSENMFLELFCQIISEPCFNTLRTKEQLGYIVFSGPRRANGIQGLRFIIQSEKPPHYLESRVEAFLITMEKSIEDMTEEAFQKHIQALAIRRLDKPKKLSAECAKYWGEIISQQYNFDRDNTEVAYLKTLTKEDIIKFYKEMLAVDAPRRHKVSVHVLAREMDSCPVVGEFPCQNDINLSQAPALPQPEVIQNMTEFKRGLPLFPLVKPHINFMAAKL
Text: Since D10 has been found as the strongest activator of IDE towards the proteolysis of insulin, we analyzed the binding site of the compound D10 for the further analysis. According to the computational results, D10 binds to Gln363 at the IDE exosite and His332 (Fig. 1D). We carried out site-directed mutagenesis by replacing these amino acids into Ala in order to verify that D10 indeed binds to this region via these amino acids. We first mutated Gln363 to Ala and then expressed and purified mutant protein through nickel resin. The effect of D10 on the proteolytic activity of mutant IDE (Gln363Ala) was measured towards FITC-insulin-mAb degradation. […] The activation was about 49-fold in the presence of D10 with wild type IDE (Fig. 2B). Although mutant IDE activity was less responsive to D10 compound compared to wild type IDE, it appeared as if D10 were interacting with IDE through […] and could enhance the activity of mutant IDE. Therefore, we generated a double mutant IDE (Gln363Ala, His332Ala) in order to eliminate the binding of D10 to the exosite region completely. […]
The effect of the bradykinin on the clearance of insulin was measured in the presence of compound D10. […] The fluorescence increase was monitored by using Fluoroskan Ascent FL microplate reader (Thermo).

| Compound | increase in magnitude of IDE activity for insulin degradation in HeLa cells [1] [%] | permeability through cell membrane [1] | decrease of insulin degradation in presence of compound when bradykinin is added [2] |
| --- | --- | --- | --- |
| COc1ccc(C2C(C(=O)Nc3ccccc3)=C(C)N=c3sc(=Cc4cn(C)nc4C)c(=O)n32)cc1 (centres unmarked) [Compound D3] | ~65 | permeable through cell membrane | – |
| Cc1nn(-c2ccccc2)c2nc(-c3cccc([N+](=O)[O-])c3)n3c4ccccc4nc3c2c1=O [Compound D10] | ~240 | permeable through cell membrane | about 50% |
